Entries after “also recorded” stand apart in the source; their conditions may differ. Non-standard residues stand in square brackets, D forms with d. Residues, ends and D or L forms follow the SMILES beside them. Nle = CCCC[C@H](N)C(=O)O
Key:
rat soleus muscle = test: Denervation-induced protein degradation in incubated rat soleus muscle; details: 100 μM MG 101; FIG. 4
Procedure: One leg of each of seven rats was denervated by section of the sciatic nerve 3 days prior to sacrifice. […] After incubation, the tissue was homogenized, and ^3 -phenylalanine incorporation into protein and free tyrosine of the medium was measured.

human cell line RAJI-K^b = test: MHC-I antigen presentation in human cells; type: cell-based; details: FIG. 8
Procedure: Antigen-presenting cells (APCs)--mouse B lymphoblastoid cell line (LB27.4)--were washed free of serum and loaded with an ovalbumin peptide (residues 257-263), which corresponds to the sequence these cells naturally generate and present. The APCs were incubated 1 hr at 37° C., electroporated with antigen, incubated 10 min on ice and washed. The antigen loaded cells were incubated 2 hrs at 37° C., fixed with paraformaldehyde, and washed. MG 101 at the concentrations indicated in FIG. 5 was present in all steps prior to fixation. APCs were assayed for antigen presentation as described in Rock et al., J. Immunol. 145:804-811 (1990) and Carbone et al., J. Exp Med. 171:377-387 (1990). […] In the left panel, APCs were treated with (open circles) or without (closed circles) MG 101 and electroporated with ovalbumin. In the right panel, APCs were treated with (open circles) or without (closed circles) MG 101 and electroporated with ovalbumin peptide. Example 7 was repeated except that the human cell line RAJI-K^b was used.

20S proteasome = target: T1, 20S proteasome (Oryctolagus cuniculus, UniProt G1T4Q9); test: Inhibition of the 20S proteasome peptidase activity (kinetic experiments); type: biochemical, Rabbit
T1 sequence (G1T4Q9 60-263): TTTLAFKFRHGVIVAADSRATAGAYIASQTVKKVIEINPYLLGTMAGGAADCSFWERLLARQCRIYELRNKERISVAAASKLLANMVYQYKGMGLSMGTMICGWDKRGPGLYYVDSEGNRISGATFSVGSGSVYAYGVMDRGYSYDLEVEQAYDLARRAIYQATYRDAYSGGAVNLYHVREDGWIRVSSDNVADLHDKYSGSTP
T1 sequence (G1SU71 1-241 partner): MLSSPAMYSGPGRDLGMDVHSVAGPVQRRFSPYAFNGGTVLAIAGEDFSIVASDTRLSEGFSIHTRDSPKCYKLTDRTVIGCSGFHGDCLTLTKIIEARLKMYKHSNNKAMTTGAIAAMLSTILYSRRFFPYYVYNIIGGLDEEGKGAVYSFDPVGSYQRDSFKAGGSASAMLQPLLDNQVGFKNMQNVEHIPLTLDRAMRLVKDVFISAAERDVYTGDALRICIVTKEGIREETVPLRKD
Excerpt: Tables I-III summarize results from kinetic experiments that measured the inhibition of the 20S and 26S proteasomes, as well as cathepsin B and calpain, enzymes that may also be involved in muscle protein turnover. In these tables, Ki values are reported, which are dissociation constants for the equilibrium that is established when enzyme and inhibitor interact to form the enzyme:inhibitor complex.
The substances and assay conditions are briefly summarized in the footnotes to Table I. MG 101 and MG 102, also known as Calpain Inhibitor I and II, were purchased from Calbiochem as catalogue products.
(^a) Rabbit muscle. SDSactivated. Substrate: SucLLVYAMC.

In the case of `CCCC[C@@H](C=O)NC(=O)[C@H](CC(C)C)NC(=O)[C@H](CC(C)C)NC(C)=O` [MG 101, Ac-Leu-Leu-Nle-H] (Ac-Leu-Leu-[Nle]-aldehyde), the “Protein degradation induced by denervation in incubated rat soleus muscle” value (rat soleus muscle) is reported as “inhibits the accelerated proteolysis in muscle; also recorded: inhibition of protein degradation”, the “Presentation of antigen from ovalbumin in human cells” value (human cell line RAJI-K^b) is reported as “prevents antigen presentation in human cells; also recorded: inhibits presentation of antigen from ovalbumin in human cells” and the “Mode of inhibition of peptidase activity of muscle 20S proteasome” value (20S proteasome; FIG. 1) is reported as “competitive inhibitor”. The Ki (20S proteasome; both latent and active forms of 20S proteasome, read-out: Ki, peptidase activities of 20S proteasome) was 0.14 to 7 µM.
